The molecules below were run against D2 receptor (Homo sapiens, UniProt P14416) (assay: [3H]Thymidine uptake assay for D2 intrinsic activity). Settings: Table 1; test compound 1 μM; 1 μM Quinpirole = 100% intrinsic activity.
Format: cell-based

Chain of D2 receptor (P14416 whole entry): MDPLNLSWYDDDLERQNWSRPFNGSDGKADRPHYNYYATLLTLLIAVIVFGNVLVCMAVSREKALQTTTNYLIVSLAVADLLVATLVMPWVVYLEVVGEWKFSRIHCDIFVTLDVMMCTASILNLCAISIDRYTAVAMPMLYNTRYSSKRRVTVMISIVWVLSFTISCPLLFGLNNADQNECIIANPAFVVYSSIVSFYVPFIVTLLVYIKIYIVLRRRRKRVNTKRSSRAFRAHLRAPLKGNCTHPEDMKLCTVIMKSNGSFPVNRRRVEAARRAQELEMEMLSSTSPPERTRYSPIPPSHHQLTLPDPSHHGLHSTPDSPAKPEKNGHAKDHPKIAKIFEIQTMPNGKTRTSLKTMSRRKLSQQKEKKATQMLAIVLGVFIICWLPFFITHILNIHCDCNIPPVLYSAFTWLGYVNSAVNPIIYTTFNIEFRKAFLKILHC

Row | Structure (SMILES) | Emax at 1 µM [%]
1 | O=c1[nH]c2nc(OCCCCN3CCN(c4cccc(Cl)c4Cl)CC3)ccc2cc1F [Example D9, 7-{4-[4-(2,3-Dichloro-phenyl)-piperazin-1-yl]-butoxy}-3-fluoro-1H-[1,8]naphthyridin-2-one] | 15
2 | O=c1ccc2ccc(OCCCCN3CCN(c4cccc5cccc(F)c45)CC3)nc2[nH]1 [Example B50, 7-{4-[4-(8-Fluoro-naphthalen-1-yl)-piperazin-1-yl]-butoxy}-1H-[1,8]naphthyridin-2-one] | 51
3 | O=C1CCc2ccc(OCCCCN3CCN(c4cccc5c(Cl)cccc45)CC3)nc2N1 [Example A75, 7-{4-[4-(5-Chloro-naphthalen-1-yl)-piperazin-1-yl]-butoxy}-3,4-dihydro-1H-[1,8]naphthyridin-2-one] | 36
4 | Cc1cc(OCCCCN2CCN(c3cccc4ccccc34)CC2)nc2c1CCC(=O)N2 [Example E10, 5-Methyl-7-[4-(4-naphthalen-1-yl-piperazin-1-yl)-butoxy]-3,4-dihydro-1H-[1,8]naphthyridin-2-one] | 31
5 | O=c1ccc2ccc(OCCN3CCN(c4cccc(Cl)c4Cl)CC3)nc2[nH]1 [Example C4, 7-{2-[4-(2,3-Dichloro-phenyl)-piperazin-1-yl]-ethoxy}-1H-[1,8]naphthyridin-2-one] | 2
6 | O=c1ccc2ccc(OCCCCN3CCN(c4ccc(F)c5ccccc45)CC3)nc2[nH]1 [Example B52, 7-{4-[4-(4-Fluoro-naphthalen-1-yl)-piperazin-1-yl]-butoxy}-1H-[1,8]naphthyridin-2-one] | 17
7 | CN1Cc2ccc(OCCCCN3CCN(c4cccc(Cl)c4Cl)CC3)nc2NC1=O [Example F7, 7-{4-[4-(2,3-Dichloro-phenyl)-piperazin-1-yl]-butoxy}-3-methyl-3,4-dihydro-1H-pyrido[2,3-d]pyrimidin-2-one] | 11
8 | O=C1CCc2ccc(OCCCCN3CCN(c4cccc5cccc(F)c45)CC3)nc2N1 [Example A66, 7-{4-[4-(8-Fluoro-naphthalen-1-yl)-piperazin-1-yl]-butoxy}-3,4-dihydro-1H-[1,8]naphthyridin-2-one] | 49
9 | O=C1CCc2ccc(CCCCCN3CCN(c4cccc5c4CCCC5)CC3)nc2N1 [Example C12, 7-{5-[4-(5,6,7.8-Tetrahydro-naphthalen-1-yl)-piperazin-1-yl]-pentyl}-3,4-dihydro-1H-[1,8]naphthyridin-2-one] | 12
10 | O=c1[nH]c2nc(OCCCCN3CCN(c4cccc5ccccc45)CC3)ccc2cc1F [Example D10, 3-Fluoro-7-[4-(4-naphthalen-1-yl-piperazin-1-yl)-butoxy]-1H-[1,8]naphthyridin-2-one] | 22
11 | Cc1cc2ccc(OCCCCN3CCN(c4cccc(Cl)c4Cl)CC3)nc2[nH]c1=O [Example D4, 7-{4-[4-(2,3-Dichloro-phenyl)-piperazin-1-yl]-butoxy}-3-methyl-1H-[1,8]naphthyridin-2-one] | 16
12 | CC(=O)c1cccc2c(N3CCN(CCCCOc4ccc5c(n4)NC(=O)CC5)CC3)cccc12 [Example A80, 7-{4-[4-(5-Acetyl-naphthalen-1-yl)-piperazin-1-yl]-butoxy}-3,4-dihydro-1H-[1,8]naphthyridin-2-one] | 30
13 | O=C1NCc2ccc(OCCCCN3CCN(c4cccc5c4CCCC5)CC3)nc2N1 [Example F4, 7-{4-[4-(5,6,7,8-Tetrahydro-naphthalen-1-yl)-piperazin-1-yl]-butoxy}-3,4-dihydro-1H-pyrido[2,3-d]pyrimidin-2-one] | 23
14 | Cc1cccc(N2CCN(CCCCCc3ccc4c(n3)NC(=O)CC4)CC2)c1Cl [Example C10, 7-{5-[4-(2-Chloro-3-methyl-phenyl)-piperazin-1-yl]-pentyl}-3,4-dihydro-1H-[1,8]naphthyridin-2-one] | 5
15 | CC(=O)c1ccc2cccc(N3CCN(CCCCOc4ccc5c(n4)NC(=O)CC5)CC3)c2c1 [Example A78, 7-{4-[4-(7-Acetyl-naphthalen-1-yl)-piperazin-1-yl]-butoxy}-3,4-dihydro-1H-[1,8]naphthyridin-2-one] | 24
16 | O=C1CCc2ccc(OCCCCN3CCN(c4cccc(C(F)(F)F)c4)CC3)nc2N1 [Example A38, 7-{4-[4-(3-Trifluoromethyl-phenyl)-piperazin-1-yl]-butoxy}-3,4-dihydro-1H-[1,8]naphthyridin-2-one] | 23
17 | O=c1ccc2cnc(OCCCCN3CCN(c4cccc5ccccc45)CC3)nc2[nH]1 [Example H4, 2-[4-(4-Naphthalen-1-yl-piperazin-1-yl)-butoxy]-8H-pyrido[2,3-d]pyrimidin-7-one] | 38
18 | Cc1cc(C)nc(N2CCN(CCCCCc3ccc4c(n3)NC(=O)CC4)CC2)c1 [Example C19, 7-{5-[4-(4,6-Dimethyl-pyridin-2-yl)-piperazin-1-yl]-pentyl}-3,4-dihydro-1H-[1,8]naphthyridin-2-one] | 13
19 | Cc1nc(OCCCCN2CCN(c3cccc4ccccc34)CC2)nc2[nH]c(=O)ccc12 [Example H12, 4-Methyl-2-[4-(4-naphthalen-1-yl-piperazin-1-yl)-butoxy]-8H-pyrido[2,3-d]pyrimidin-7-one] | 34
20 | N#Cc1ccc2cccc(N3CCN(CCCCOc4ccc5c(n4)NC(=O)CC5)CC3)c2c1 [Example A83, 8-{4-[4-(7-Oxo-5,6,7,8-tetrahydro-[1,8]naphthyridin-2-yloxy)-butyl]-piperazin-1-yl}-naphthalene-2-carbonitrile] | 36
21 | COc1ccc2cccc(N3CCN(CCCCOc4ccc5ccc(=O)[nH]c5n4)CC3)c2c1 [Example B60, 7-{4-[4-(7-Methoxy-naphthalen-1-yl)-piperazin-1-yl]-butoxy}-1H-[1,8]naphthyridin-2-one] | 28
22 | COc1cccc(N2CCN(CCCCOc3ccc4ccc(=O)[nH]c4n3)CC2)c1Cl [Example B18, 7-{4-[4-(2-Chloro-3-methoxy-phenyl)-piperazin-1-yl]-butoxy}-1H-[1,8]naphthyridin-2-one] | 32
23 | O=c1ccc2cnc(OCCCCN3CCN(c4cccc5c4CCCC5)CC3)cc2[nH]1 [Example I14, 7-{4-[4-(5,6,7,8-Tetrahydro-naphthalen-1-yl)-piperazin-1-yl]-butoxy}-1H-[1,6]naphthyridin-2-one] | 24
24 | CC(=O)c1cccc2c(N3CCN(CCCCOc4ccc5ccc(=O)[nH]c5n4)CC3)cccc12 [Example B64, 7-{4-[4-(5-Acetyl-naphthalen-1-yl)-piperazin-1-yl]-butoxy}-1H-[1,8]naphthyridin-2-one] | 27
25 | Cc1cccc(N2CCN(CCCCCc3ccc4c(n3)NC(=O)CC4)CC2)n1 [Example C16, 7-{5-[4-(6-Methyl-pyridin-2-yl)-piperazin-1-yl]-pentyl}-3,4-dihydro-1H-[1,8]naphthyridin-2-one] | 34
26 | COc1ccc2cccc(N3CCN(CCCCOc4nc(C)c5ccc(=O)n(C)c5n4)CC3)c2c1 [Example H14, 2-{4-[4-(7-Methoxy-naphthalen-1-yl)-piperazin-1-yl]-butoxy}-4,8-dimethyl-8H-pyrido[2,3-d]pyrimidin-7-one] | 33

Same assay, conditions: Table 2; test compound 1 μM; 1 μM Quinpirole = 100% intrinsic activity

Row | Structure (SMILES) | Emax at 1 µM [%]
27 | O=C1CCc2ccc(OCCCCN3CCN(c4cccc5cccnc45)CC3)nc2N1 [Example A34′, 7-[4-(4-Quinolin-8-yl-piperazin-1-yl)-butoxy]-3,4-dihydro-1H-[1,8]naphthyridin-2-one] | 38
28 | Cc1nc(OCCCCN2CCN(c3cccc4c3OCCO4)CC2)nc2[nH]c(=O)ccc12 [Example G10′, 2-{4-[4-(2,3-Dihydro-benzo[1,4]dioxin-5-yl)-piperazin-1-yl]-butoxy}-4-methyl-8H-pyrido[2,3-d]pyrimidin-7-one] | 18
29 | O=c1ccc2ccc(OCCCCN3CCN(c4cccc5c4OCC5)CC3)nc2[nH]1 [Example B8′, 7-{4-[4-(2,3-Dihydro-benzofuran-7-yl)-piperazin-1-yl]-butoxy}-1H-[1,8]naphthyridin-2-one] | 21
30 | O=C1CCc2ccc(OCCCCN3CCN(c4cccc5[nH]ccc45)CC3)nc2N1 [Example A25′, 7-{4-[4-(1H-Indol-4-yl)-piperazin-1-yl]-butoxy}-3,4-dihydro-1H-[1,8]naphthyridin-2-one] | 36
31 | O=c1ccc2ccc(OCCCCN3CCN(c4cccc5nsnc45)CC3)nc2[nH]1 [Example B40′, 7-[4-(4-Benzo[1,2,5]thiadiazol-4-yl-piperazin-1-yl)-butoxy]-1H-[1,8]naphthyridin-2-one] | 49
32 | O=c1ccc2ccc(OCCCCN3CCN(c4cccc5c4CCCO5)CC3)nc2[nH]1 [Example B10′, 7-[4-(4-Chroman-5-yl-piperazin-1-yl)-butoxy]-1H-[1,8]naphthyridin-2-one] | 22
33 | Cc1nc(OCCCCN2CCN(c3cccc4c3OCC4)CC2)nc2[nH]c(=O)ccc12 [Example G11′, 2-{4-[4-(2,3-Dihydro-benzofuran-7-yl)-piperazin-1-yl]-butoxy}-4-methyl-8H-pyrido[2,3-d]pyrimidin-7-one] | 39
34 | CC1(C)COc2c(cccc2N2CCN(CCCCOc3ccc4c(n3)NC(=O)CC4)CC2)C1=O [Example A21′, 7-{4-[4-(3,3-Dimethyl-4-oxo-chroman-8-yl)-piperazin-1-yl]-butoxy}-3,4-dihydro-1H-[1,8]naphthyridin-2-one] | 24
35 | Cc1ccc2cccc(N3CCN(CCCCOc4ncc5ccc(=O)[nH]c5n4)CC3)c2n1 [Example G9′, 2-{4-[4-(2-Methyl-quinolin-8-yl)-piperazin-1-yl]-butoxy}-8H-pyrido[2,3-d]pyrimidin-7-one] | 21
36 | COc1ccc2cccc(N3CCN(CCCCOc4ccc5ccc(=O)[nH]c5n4)CC3)c2n1 [Example B30′, 7-{4-[4-(2-Methoxy-quinolin-8-yl)-piperazin-1-yl]-butoxy}-1H-[1,8]naphthyridin-2-one] | 42
37 | O=C1CCc2ccc(OCCCCN3CCN(c4cccc5c4OCCC5)CC3)nc2N1 [Example A4′, 7-[4-(4-Chroman-8-yl-piperazin-1-yl)-butoxy]-3,4-dihydro-1H-[1,8]naphthyridin-2-one] | 18
38 | O=C1CCc2ccc(OCCCCN3CCN(c4cccc5nonc45)CC3)nc2N1 [Example A29′, 7-[4-(4-Benzo[1,2,5]oxadiazol-4-yl-piperazin-1-yl)-butoxy]-3,4-dihydro-1H-[1,8]naphthyridin-2-one] | 33
